Key:
Type in all cases: functional
HL-60 [1] = assay: Induction of cell cycle arrest in human HL60 cells assessed as accumulation at subG1 phase at 10 uM after 24 hrs by propidium iodide staining based flow cytometry (reference value: 3.4 +/- 0.3%)
HL-60 [2] = assay: Induction of cell cycle arrest in human HL60 cells assessed as accumulation at subG1 phase at 1 uM after 24 hrs by propidium iodide staining based flow cytometry (reference value: 3.4 +/- 0.3%)
HL-60 [3] = assay: Induction of cell cycle arrest in human HL60 cells assessed as accumulation at subG1 phase at 3 uM after 48 hrs by propidium iodide staining based flow cytometry (reference value: 3.7 +/- 0.1%)
U-937 = assay: Induction of cell cycle arrest in human U937 cells assessed as accumulation at subG1 phase at 1 uM after 48 hrs by propidium iodide staining based flow cytometry (reference value: 6.7 +/- 0.3%)
HL-60 [4] = assay: Induction of apoptosis in human HL60 cells in presence of 10 uM MEK1/2 inhibitor PD98059 after 24 hrs by propidium iodide staining based flow cytometry
HL-60 [5] = assay: Induction of cell cycle arrest in human HL60 cells assessed as accumulation at S phase at 1 uM after 24 hrs by propidium iodide staining based flow cytometry (reference value: 17.9 +/- 0.6%)

O=c1c(O)c(-c2ccc(Br)cc2)oc2ccccc12
Activity (HL-60 [1]): 20.4%
Activity (HL-60 [2]): 4.1%
Activity (HL-60 [3]): 14.3%
Activity (U-937): 7%
fold change (FC) (HL-60 [4]): 2
Activity (HL-60 [5]): 20.7%

— ChEMBL document CHEMBL3352730, “Synthesis and effects on cell viability of flavonols and 3-methyl ether derivatives on human leukemia cells” (Eur J Med Chem, 2014)
